Like-named read-outs stand apart in the source and are kept apart here.
Assays:
[1] = Far-UV circular dichroism, α-helical content; type: physicochemical; settings: 10 μM in PBS
Method: Far-UV circular dichroism (CD) was performed using 10 μM of each peptide solution in PBS. Each spectrum was recorded from 260 nm to 190 nm at 25°C by using a Jasco CD spectrophotometer (Jasco, Japan) with a cell path length of 0.05 cm. Spectra were collected as an average of three scans, with a scan speed of 20 nm/min and a response time of 2 sec. The control (solvent) CD spectra were subtracted to eliminate background effects. Data were reported in millidegrees and converted to molar ellipticity [θ] in units as follows: degree cm^2 dmol^-1. The percentage of α-helical content was estimated by assuming that a [θ]222 value of -33000 deg cm^2 dmol^-1corresponds to 100% α-helix.
CD spectroscopy is a practical and efficient method for secondary structure characterization of a protein or peptide.
Far-UV CD spectra were all recorded at room temperature, with a path-length of 0.05 cm. Peptide concentration was 10 microM in PBS, pH 7.2.

[2] = tested on: HIV-Lai env mediated fusion of Hela-env-Lai cells with HeLa P4.2 (Hela-CD4-LTR-LacZ) cells; assay: HIV-1 env-mediated cell-to-cell fusion assay (β-galactosidase read-out); type: cell-based; settings: for IC50: 6 h co-culture at 37°C, DMEM with calcium, others chemically synthesized; for inhibition of cell-cell fusion: peptide at 1 μM
Method: Fifteen minutes later, target cells (HeLa P4.2) were added to the wells (10^5 per well) and co-cultured for 6 h at 37°C. Then, cell-cell fusion was monitored by beta-galactosidase assay. Briefly, cells were lysed in 80 μl of lysis buffer (5% NP40 in PBS without CaCl2 and MgCl2) for 10 min and then centrifuged at 10,000 g for 5 min at 4°C. Equal volumes (50 μl) of lysate and reaction buffer (120 mM Na2HPO4, 80 mM NaH2PO4, 2 mM MgSO4, 20 mM KCl, 10 mM β-mercaptoethanol, 16 mM CPRG (chlorophenol red-β-D-galactopyranoside, Roche, France) were combined and incubated for 60 min at room temperature in the dark. The absorbance at 590 nm of each sample was measured.
Cell fusion experiments are convenient assays for analysis of the mechanism by which peptides inhibit virus entry into host cells. Hela-CD4-LTR-LacZ (P4.2) cells stably express the human CD4 molecule, CXCR4 and long terminal repeat (LTR) driven lacZ gene. Hela-env-Lai cells stably express HIV-Lai envelope glycoproteins gp120 and gp41, and the HIV-1 transactivator Tat. Fusion of Hela-Env-Lai cells and P4.2 cells results in transferring Tat to P4.2 cell cytosol. Tat in turn, transactivates the LTR and initiates transcription of the lacZ gene. The extent of fusion is directly related to β-galactosidase activity in cell lysates.
Different concentrations (≤ 1 μM) of peptides were incubated with HeLa-env-Lai cells in culture medium (DMEM) that contained calcium and magnesium, prior to addition of the P4.2 cells.

HIV-1Lai (X4 virus) = assay: Neutralization of HIV-1 infection of PBMC, intracellular p24 staining (X4 virus); type: cell-based; settings: peptide at 1 μM
Method: (§1) Neutralization of HIV-1 infectivity for PBMC was performed as previously described by analysing intracellular staining of p24 Ag after a single round of infection. […] PHA-stimulated PBMC (25 μl, 2 × 10^5 cells/well) were added to the mixture. After overnight incubation, 100 μl of culture medium containing 20 U/ml of IL-2 were added and cells were cultured for an additional 24 h at 37°C. For intracellular p24 Ag staining, cells were fixed with 4% paraformaldehyde for 20 min, permeabilized with 0.05% saponin and stained with a fluorescent anti-p24 mAb (PE-anti-p24, KC57 clone, Beckman Coulter, Hialeah, FL) as a 1/160 dilution in 1% BSA, 0.05% saponin in PBS (pH = 7.4) for 15–20 min at 4°C. The percentage of p24 positive cells was monitored by flow cytometry (FACScalibur with the XL software) by gating 20,000 events on the living cell population identified by forward- and side-scatter parameters.

HIV-1JRCSF (R5 virus) = type: cell-based; settings: PBMC, peptide at 1 μM
Method: as §1

[3] = tested on: T20-resistant HIV-1 strains (ENF-1 and ENF-2); assay: Single-cycle infectivity assay, T20-resistant strains, U373MG-CD4-CCR5-LTR-lacZ cells; type: cell-based; settings: at concentrations as much as 250- to 2000-fold higher than the IC50 of P5
Excerpt: (§2) We constructed viruses bearing the envelope glycoproteins derived from virus populations present before and during T20 treatment of a patient who received T20 as part of a salvage therapy, as we reported earlier. […] Each chimeric proviral clone was obtained by replacing the AgeI-NheI fragment of a modified pNL4-3 vector (nt 6346 to 8287 in pNL4-3) by a AgeI-NheI PCR fragment amplified from the envelope subclone. Sequences of oligonucleotides used for PCR and site-directed mutagenesis can be provided upon request. […] [29].
(§3) These assays were performed as previously described. Two days before infection, U373MG-CD4-CCR5-LTR-lacZ cells were seeded into 96-well plates at a density of 2,000 cells/well. […] Forty hours after infection, cells were lysed using 100 μl/well of lysis buffer (5 mM MgCl2 and 0.1% NP-40 in 1× phosphate-buffered saline), prior to addition of 100 μl/well of chromogenic substrate (6 mM chlorophenol red-β-D-galactopyranoside; CPRG, Roche) in lysis buffer.

[4] = tested on: T20-sensitive HIV-1 strains (pre-ENF and JRCSF); assay: Single-cycle infectivity assay, T20-sensitive strains, U373MG-CD4-CCR5-LTR-lacZ cells; type: cell-based; settings: P5 more potent than T20
Excerpt: as §2, §3

[5] = tested on: CD4+ CEM-NKr lymphocytic cell line; assay: Binding of peptides to CD4+ target cells (2F5 IgG, flow cytometry), cell line; parameters: species or system human; settings: 1 h at room temperature, RPMI 10% FCS, micro-molar range
Method: (§4) Binding of peptides was evaluated using either the lymphocytic cell line CD4^+- CEM-NK^r (NK-resistant) cells (NIH AIDS Reagent Programm, USA)or PHA-activated CD4^+ T cells purified from peripheral blood of 5 healthy donors using human CD4^+ T cells enrichment kit (StemCell Technologies Inc., France). 5 × 10^5 cells were incubated with indicated concentrations of peptide for 1 h at room temperature in a total volume of 50 microliter/μl of RPMI 10%FCS. After 2 wahses in cold medium, bound peptide was detected with the human IgG 2F5 (10 microg/μg), or irrelevant human IgG as control, for 1 h at 37°C followed anti-human IgG-FITC mAb (1:1000, Jackson ImmunoResearch, France). Binding of peptides to CD4^+ cells was evaluated by flow cytometry (FACSCalibur, Becton Dickinson) on 10^4 events, gated by forward and side scatter and analyzed for FL1 (FITC channel) using the Cytomix RXP software.

[6] = tested on: primary human CD4+ T cells; assay: Binding of peptides to CD4+ target cells (2F5 IgG, flow cytometry), primary cells; settings: 1 h at room temperature, RPMI 10% FCS, micro-molar range
Method: as §4

[7] = parameters: method as in 2 sources, one per row (each row's own in cited_ref): ref 20 = [20]; PMID 17553560; doi:10.1016/j.ceca.2007.04.011; Yu H Alfsen A Tudor D Bomsel M The binding of HIV-1 gp41 membrane proximal domain to its mucosal receptor, galactosyl ceramide, is structure-dependent Cell Calcium 2008 43 73 82 17553560 10.1016/j.cec ||| ref 36 = [36]; PMID 17276993; doi:10.1074/jbc.M609148200; Liu S Jing W Cheung B Lu H Sun J Yan X Niu J Farmar J Wu S Jiang S HIV gp41 C-terminal heptad repeat contains multifunctional domains. Relation to mechanisms of action of anti-HIV peptides J Biol Chem; settings: Table 1, left column; cited from earlier work

LZ: peptide comprising the gp41 N-terminal leucine zipper domain, a.a. 560–594 (EAQQHLLQLTVWGIKQLQARILAVERYLKDQQLLG; gp41; UniProt P04578 560-594, looked up, fragment)
[θ]222 ([1]; Table 1, chemically synthesized peptides alone or with LZ): -4 10^-3deg cm^2dmol^-1 | IC50 ([2]; Table 2, right column, alone or in the presence of LZ, P7 recombinant, read-out: IC50 (nM, Mean ± S.D.)): > 1000 nM | inhibition of cell-cell fusion [2]: negligible inhibition

N36: gp41 NHR peptide a.a. 546–581, from the AIDS Research and Reference Reagent Program [Peptide N36]
[θ]222 ([1]; Table 1, left column, chemically synthesized peptides alone or with N36): -6 10^-3deg cm^2dmol^-1 | IC50 ([2]; Table 2, left column, peptides 50 to 1000 nM, P5L recombinant, read-out: IC50g (nM, Mean ± S.D.)): > 1000 nM | inhibition of cell-cell fusion [2]: negligible inhibition

Enfuvirtide
inhibitory activity, X4 virus infection (HIV-1Lai (X4 virus); PBMC): greater than 90% | inhibition of PBMC infection by X4 virus (in words) (HIV-1Lai (X4 virus); human PBMC, HIV-Lai): potent inhibition | inhibitory activity, R5 virus infection (HIV-1JRCSF (R5 virus)): greater than 90% | inhibition of T20-resistant strains (in words) [3]: failed to inhibit | activity against T20-sensitive strains (in words) [4]: active | binding to CD4+ lymphocyte cell line CEM (in words) [5]: unable to bind | binding to primary human CD4+ T cells (in words) [6]: unable to bind | [θ]222 [7]: -2 10^-3deg cm^2dmol^-1
